# Patent US20250092044A1, “Kinase Inhibitors” (Incyte Corporation, priority 2023, published 2025)
# Key:
# [1] = molecular target: FLT3 (Homo sapiens (Human), UniProt P36888); experiment: FLT3 Enzymatic Assay; format: biochemical; settings: 1 mM ATP
# In short: (§1)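 Room-temperature HTRF kinase assay (665/620 nm ratio) with 0.011 nM FLT3, 1 mM ATP, 500 nM biotinylated TK substrate in HEPES pH 7.0 buffer with MgCl2 and DTT; 0.5% DMSO final. Read after 60 min incubation; IC50 fitted from percent control activity versus log concentration, no-ATP wells as negative control.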
# [2] = tested on: FLT3; experiment: FLT3 Enzymatic Assay; format: biochemical
# In short: as §1
# [3] = tested on: pSTAT5 in SET-2 cells in whole blood; experiment: pSTAT5 SET-2 Whole Blood MSD Assay; format: cell-based; settings: Homo sapiens, 2 hour incubation, read-out: SET2 WB IC50
# Description: SET-2 cells shipped from ABS, RPMI1640 medium, Fetal Bovine Serum from Gibco, Phospho-STAT5a,b Whole Cell Lysate Kit from Mesoscale, Retronectin (Recombinant Human Fibronectin Fragment) from TaKaRa, 96 well cell culture plate flat bottom from Corning, lysis buffer from Cell Signaling Technology, and sterile PBS from Gibco. Whole Blood from by BioIVT.
# SET-2 cells were cultured in RPMI media with 20% FBS at 37° C. humidified incubator supplied with 5% CO2. On the day of the assay, 40 uL per well of diluted retronectin working solution was added to sterile 96-well clear flat bottom tissue culture plates (1:200 dilution of retronectin in sterile PBS) and incubated at 37 C for 1 hour. After 1 hour, the retronectin working solution was aspirated and SET-2 cells were seeded at 100,000/well in RPMI+20% FBS. Cells were incubated overnight at 37° C. and 5% CO2. The next day, the medium was removed and 40 μL of diluted compounds in serum-free RPMI and whole blood was added to the cells for a 2 hour incubation at 37° C. and 5% CO2. The compound starting concentration is 20 μM and 2.5 fold serial diluted down to 0.21 nM. The whole blood and compound mixture was then aspirated off using the BlueCat plate washer and washed 1× with PBS. Cells were lysed by adding 40 μL of 3× complete lysis buffer and shaken at room temperature for 45-60 minutes (complete lysis buffer consists of Cell Signaling Technology lysis buffer diluted to 3× and supplemented with Mesoscale's protease inhibitor, phosphatase I inhibitor, and phosphatase II inhibitor). The pSTAT5 MSD plates were blocked by adding 150 μL of Blocker A solution per well to the MSD plates and incubated at room temperature with shaking at 400 rpm for one hour or longer. After blocking, plates were washed 3× with 300 μL/well of 1× Tris Wash Buffer. After lysis, added 25 μL per well of lysed sample was added to MSD plate and incubated with shaking at 4° C. wrapped in foil overnight. The next day, plates were washed again and 25 μL/well of diluted 1× Detection Antibody Solution, wrapped in foil, and incubated at room temperature with shaking at 400 rpm for 1 hour. Plates were then washed again and lastly, 150 μL/well of 1× Read Buffer T was added to all wells. Plates were analyzed on MSD Discovery within 5 minutes. […] Data analysis was performed in GraphPad Prism using a 4-parameter fit and data was reported as Average±SD.
# FLT3 (Homo sapiens (Human), UniProt P36888), sequence (P36888 27-993, species assumed): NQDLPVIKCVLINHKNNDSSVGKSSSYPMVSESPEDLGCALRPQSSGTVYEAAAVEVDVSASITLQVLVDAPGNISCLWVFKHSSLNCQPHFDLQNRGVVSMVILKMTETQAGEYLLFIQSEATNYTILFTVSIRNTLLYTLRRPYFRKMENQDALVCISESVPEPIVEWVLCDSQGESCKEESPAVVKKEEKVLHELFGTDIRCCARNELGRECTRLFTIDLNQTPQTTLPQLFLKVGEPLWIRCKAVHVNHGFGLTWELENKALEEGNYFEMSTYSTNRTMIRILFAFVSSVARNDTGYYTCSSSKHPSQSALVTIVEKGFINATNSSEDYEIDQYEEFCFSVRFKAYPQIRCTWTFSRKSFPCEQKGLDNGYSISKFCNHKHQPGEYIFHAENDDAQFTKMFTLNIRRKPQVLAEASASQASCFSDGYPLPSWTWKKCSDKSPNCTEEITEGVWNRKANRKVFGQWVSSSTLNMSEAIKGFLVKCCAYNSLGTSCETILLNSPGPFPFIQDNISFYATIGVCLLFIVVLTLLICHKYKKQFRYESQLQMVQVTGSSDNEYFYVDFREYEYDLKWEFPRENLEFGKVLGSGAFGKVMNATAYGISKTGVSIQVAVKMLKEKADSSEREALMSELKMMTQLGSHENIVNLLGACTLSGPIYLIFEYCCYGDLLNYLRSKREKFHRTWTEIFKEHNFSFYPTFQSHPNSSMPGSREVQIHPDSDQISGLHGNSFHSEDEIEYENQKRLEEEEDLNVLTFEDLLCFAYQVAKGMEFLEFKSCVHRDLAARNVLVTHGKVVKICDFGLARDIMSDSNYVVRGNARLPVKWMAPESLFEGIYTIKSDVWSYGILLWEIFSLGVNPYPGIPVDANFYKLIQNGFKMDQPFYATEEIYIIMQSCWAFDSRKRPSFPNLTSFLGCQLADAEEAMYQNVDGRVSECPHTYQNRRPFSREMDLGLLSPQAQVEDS
compound,measurement,setting,value
"CCNC(=O)c1ccc(-c2[nH]c3ncc4c(c3c2-c2ccc3c(cnn3C(C)C)c2)n([C@@H]2CC[C@@H](NC(=O)OC)C2)c(=O)n4C)cc1F [Example 6, Methyl ((1R,3R)-3-(7-(4-(ethylcarbamoyl)-3-fluorophenyl)-8-(1-isopropyl-1H-indazol-5-yl)-3-methyl-2-oxo-3,6-dihydroimidazo[4,5-d]pyrrolo[2,3-b]pyridin-1(2H)-yl)cyclopentyl)carbamate]",IC50,[1],1.25 to 2.5 µM
same,Selectivity FLT3/JH2 V617F,[2],***** (selectivity of >5000-fold to ≤12500-fold)
same,IC50,[3],2.5 to 5 µM
"COC(=O)N[C@@H]1CC[C@@H](n2c(=O)n(C)c3cnc4[nH]c(-c5ccc(C(=O)NC6CC6)c(F)c5)c(-c5ccc6c(cnn6C(C)C)c5)c4c32)C1 [Example 8, Methyl ((1R,3R)-3-(7-(4-(cyclopropylcarbamoyl)-3-fluorophenyl)-8-(1-isopropyl-1H-indazol-5-yl)-3-methyl-2-oxo-3,6-dihydroimidazo[4,5-d]pyrrolo[2,3-b]pyridin-1(2H)-yl)cyclopentyl)carbamate]",IC50,[1],> 2.5 µM
same,Selectivity FLT3/JH2 V617F,[2],****** (selectivity of >12500-fold)
same,IC50,[3],5 to 7.5 µM
"COC(=O)N[C@@H]1CC[C@@H](n2c(=O)n(C)c3cnc4[nH]c(-c5ccc(C(=O)NC6CC6(F)F)c(F)c5)c(-c5ccc6c(cnn6C(C)C)c5)c4c32)C1 (stereo partly drawn) [Example 9, Methyl ((1R,3R)-3-(7-(4-((2,2-difluorocyclopropyl)carbamoyl)-3-fluorophenyl)-8-(1-isopropyl-1H-indazol-5-yl)-3-methyl-2-oxo-3,6-dihydroimidazo[4,5-d]pyrrolo[2,3-b]pyridin-1(2H)-yl)cyclopentyl)carbamate]",IC50,[1],> 2.5 µM
same,Selectivity FLT3/JH2 V617F,[2],****** (selectivity of >12500-fold)
same,IC50,[3],5 to 7.5 µM
"COC(=O)N[C@@H]1CC[C@@H](n2c(=O)n(C)c3cnc4[nH]c(-c5ccc(C(=O)NC6CC6C(F)(F)F)c(F)c5)c(-c5ccc6c(cnn6C(C)C)c5)c4c32)C1 (stereo partly drawn) [Example 10, Methyl ((1R,3R)-3-(7-(3-fluoro-4-((2-(trifluoromethyl)cyclopropyl)carbamoyl)phenyl)-8-(1-isopropyl-1H-indazol-5-yl)-3-methyl-2-oxo-3,6-dihydroimidazo[4,5-d]pyrrolo[2,3-b]pyridin-1(2H)-yl)cyclopentyl)carbamate]",IC50,[1],> 2.5 µM
same,Selectivity FLT3/JH2 V617F,[2],****** (selectivity of >12500-fold)
same,IC50,[3],> 7.5 µM
"COC(=O)N[C@@H]1CC[C@@H](n2c(=O)n(C)c3cnc4[nH]c(-c5ccc(C(=O)NCC(F)(F)F)c(F)c5)c(-c5ccc6c(cnn6C(C)C)c5)c4c32)C1 [Example 11, Methyl ((1R,3R)-3-(7-(3-fluoro-4-((2,2,2-trifluoroethyl)carbamoyl)phenyl)-8-(1-isopropyl-1H-indazol-5-yl)-3-methyl-2-oxo-3,6-dihydroimidazo[4,5-d]pyrrolo[2,3-b]pyridin-1(2H)-yl)cyclopentyl)carbamate]",IC50,[1],> 2.5 µM
same,Selectivity FLT3/JH2 V617F,[2],****** (selectivity of >12500-fold)
same,IC50,[3],> 7.5 µM
"CNC(=O)c1ccc(-c2[nH]c3ncc4c(c3c2-c2ccc3c(cnn3C(C)C)c2)n([C@@H]2CC[C@@H](NC(=O)OC)C2)c(=O)n4C)cc1F [Example 12, Methyl ((1R,3R)-3-(7-(3-fluoro-4-(methylcarbamoyl)phenyl)-8-(1-isopropyl-1H-indazol-5-yl)-3-methyl-2-oxo-3,6-dihydroimidazo[4,5-d]pyrrolo[2,3-b]pyridin-1(2H)-yl)cyclopentyl)carbamate]",IC50,[1],> 2.5 µM
same,Selectivity FLT3/JH2 V617F,[2],****** (selectivity of >12500-fold)
same,IC50,[3],> 7.5 µM
"COC(=O)N[C@@H]1CC[C@@H](n2c(=O)n(C)c3cnc4[nH]c(-c5ccc(C(=O)NC6(C(F)(F)F)CC6)c(F)c5)c(-c5ccc6c(cnn6C(C)C)c5)c4c32)C1 [Example 13, Methyl ((1R,3R)-3-(7-(3-fluoro-4-((1-(trifluoromethyl)cyclopropyl)carbamoyl)phenyl)-8-(1-isopropyl-1H-indazol-5-yl)-3-methyl-2-oxo-3,6-dihydroimidazo[4,5-d]pyrrolo[2,3-b]pyridin-1(2H)-yl)cyclopentyl)carbamate]",IC50,[1],> 2.5 µM
same,Selectivity FLT3/JH2 V617F,[2],****** (selectivity of >12500-fold)
same,IC50,[3],5 to 7.5 µM
"COCCNC(=O)c1ccc(-c2[nH]c3ncc4c(c3c2-c2ccc3c(cnn3C(C)C)c2)n([C@@H]2CC[C@@H](NC(=O)OC)C2)c(=O)n4C)cc1F [Example 14, Methyl ((1R,3R)-3-(7-(3-fluoro-4-((2-methoxyethyl)carbamoyl)phenyl)-8-(1-isopropyl-1H-indazol-5-yl)-3-methyl-2-oxo-3,6-dihydroimidazo[4,5-d]pyrrolo[2,3-b]pyridin-1(2H)-yl)cyclopentyl)carbamate]",IC50,[1],> 2.5 µM
same,Selectivity FLT3/JH2 V617F,[2],****** (selectivity of >12500-fold)
same,IC50,[3],5 to 7.5 µM
"COCCN(C)C(=O)c1ccc(-c2[nH]c3ncc4c(c3c2-c2ccc3c(cnn3C(C)C)c2)n([C@@H]2CC[C@@H](NC(=O)OC)C2)c(=O)n4C)cc1F [Example 15, Methyl ((1R,3R)-3-(7-(3-fluoro-4-((2-methoxyethyl)(methyl)carbamoyl)phenyl)-8-(1-isopropyl-1H-indazol-5-yl)-3-methyl-2-oxo-3,6-dihydroimidazo[4,5-d]pyrrolo[2,3-b]pyridin-1(2H)-yl)cyclopentyl)carbamate]",IC50,[1],1.25 to 2.5 µM
same,Selectivity FLT3/JH2 V617F,[2],****** (selectivity of >12500-fold)
same,IC50,[3],5 to 7.5 µM
"COC(=O)N[C@@H]1CC[C@@H](n2c(=O)n(C)c3cnc4[nH]c(-c5ccc(C(=O)N6CCOCC6)c(F)c5)c(-c5ccc6c(cnn6C(C)C)c5)c4c32)C1 [Example 16, Methyl ((1R,3R)-3-(7-(3-fluoro-4-(morpholine-4-carbonyl)phenyl)-8-(1-isopropyl-1H-indazol-5-yl)-3-methyl-2-oxo-3,6-dihydroimidazo[4,5-d]pyrrolo[2,3-b]pyridin-1(2H)-yl)cyclopentyl)carbamate]",IC50,[1],1.25 to 2.5 µM
same,Selectivity FLT3/JH2 V617F,[2],****** (selectivity of >12500-fold)
same,IC50,[3],2.5 to 5 µM
"CNC(=O)c1ccc(-c2[nH]c3ncc4c(c3c2-c2ccc3c(cnn3C(C)C)c2)n([C@@H]2CC[C@@H](NC(=O)OC)C2)c(=O)n4C)cc1 [Example 21, Methyl ((1R,3R)-3-(8-(1-isopropyl-1H-indazol-5-yl)-3-methyl-7-(4-(methylcarbamoyl)phenyl)-2-oxo-3,6-dihydroimidazo[4,5-d]pyrrolo[2,3-b]pyridin-1(2H)-yl)cyclopentyl)carbamate]",IC50,[1],0.25 to 1.25 µM
same,Selectivity FLT3/JH2 V617F,[2],***** (selectivity of >5000-fold to ≤12500-fold)
same,IC50,[3],> 7.5 µM
"CCNC(=O)c1ccc(-c2[nH]c3ncc4c(c3c2-c2ccc3c(cnn3C(C)C)c2)n([C@@H]2CC[C@@H](NC(=O)OC)C2)c(=O)n4C)cc1 [Example 23, Methyl ((1R,3R)-3-(7-(4-(ethylcarbamoyl)phenyl)-8-(1-isopropyl-1H-indazol-5-yl)-3-methyl-2-oxo-3,6-dihydroimidazo[4,5-d]pyrrolo[2,3-b]pyridin-1(2H)-yl)cyclopentyl)carbamate]",IC50,[1],0.25 to 1.25 µM
same,Selectivity FLT3/JH2 V617F,[2],**** (selectivity of >1750-fold to ≤5000-fold)
same,IC50,[3],2.5 to 5 µM
"[2H]C([2H])([2H])n1c(=O)n([C@@H]2CC[C@@H](NC(=O)OC)C2)c2c3c(-c4ccc5c(c4)COC5(C)C)c(-c4ccc(C(=O)N(C)C)cc4)[nH]c3ncc21 [Example 30, methyl ((1R,3R)-3-(8-(1,1-dimethyl-1,3-dihydroisobenzofuran-5-yl)-7-(4-(dimethylcarbamoyl)phenyl)-3-(methyl-d3)-2-oxo-3,6-dihydroimidazo[4,5-d]pyrrolo[2,3-b]pyridin-1(2H)-yl)cyclopentyl)carbamate]",IC50,[1],0.25 to 1.25 µM
same,Selectivity FLT3/JH2 V617F,[2],***** (selectivity of >5000-fold to ≤12500-fold)
same,IC50,[3],≤ 2.5 µM
